Experimental data: PMC4281354, “The opioid receptor pharmacology of GSK1521498 compared to other ligands with differential effects on compulsive reward-related behaviours” (Psychopharmacology, 2014)
Structures can show the parent of a compound that is named as a salt. Where two headings read alike, the source gives them in different places.

How the values were obtained:
[1] = target: human NOPr (Homo sapiens, UniProt P41146); assay: Antagonism of nociceptin-stimulated [35S]GTPγS binding, CHO membranes overexpressing NOPr (SPA, antagonist mode); assay type: biochemical
[2] = target: T1, MOPr (Homo sapiens, UniProt P35372); assay: Basal [35S]GTPγS binding, CHO membranes overexpressing MOPr (agonist mode); assay type: biochemical
[3] = system: cocaine seeking; design: method as in Giuliano et al. [2013]; settings: ref Giuliano et al. [2013]; cited from earlier work
[4] = target: T1, MOPr; assay: [3H]naloxone dissociation kinetics from MOPr, MOPr-HEK293 membranes; assay type: binding; settings: drug 1 μM
[5] = system: heroin seeking; design: method as in Giuliano et al. [2013]; settings: ref Giuliano et al. [2013]; cited from earlier work
[6] = target: T1, MOPr; assay: [3H]naloxone competition displacement binding, MOPr-HEK293 membranes
[7] = target: human KOPr (Homo sapiens, UniProt P41145); assay: Antagonism of dynorphin-stimulated [35S]GTPγS binding, CHO membranes overexpressing KOPr (SPA, antagonist mode); assay type: biochemical
[8] = target: MOPr in mouse brain membranes (Mus musculus, UniProt P42866); assay: Basal [35S]GTPγS binding, whole mouse brain membranes (naive or morphine-pretreated mice); assay type: biochemical; settings: 1 μM
[9] = target: T1, MOPr; assay: Antagonism of Met-Enk-stimulated [35S]GTPγS binding, CHO membranes overexpressing MOPr (SPA, antagonist mode); assay type: biochemical
[10] = target: T1, MOPr; assay: Basal [35S]GTPγS binding, membranes from CHO cells expressing a low level of MOPr; assay type: biochemical; settings: 1 μM, CHO MOPr approximately 70 fmol per milligram of protein
[11] = target: human DOPr (Homo sapiens, UniProt P41143); assay: Antagonism of Met-Enk-stimulated [35S]GTPγS binding, CHO membranes overexpressing DOPr (SPA, antagonist mode); assay type: biochemical
[12] = system: K+ current in rat brain neurons; design: method as in Bailey et al. [2009]; settings: ref Bailey et al. [2009], read-out: EC50 for activation of the K+ current; cited from earlier work
[13] = from fpKi, GTPγS antagonist mode

T1 sequence (P35372 whole entry): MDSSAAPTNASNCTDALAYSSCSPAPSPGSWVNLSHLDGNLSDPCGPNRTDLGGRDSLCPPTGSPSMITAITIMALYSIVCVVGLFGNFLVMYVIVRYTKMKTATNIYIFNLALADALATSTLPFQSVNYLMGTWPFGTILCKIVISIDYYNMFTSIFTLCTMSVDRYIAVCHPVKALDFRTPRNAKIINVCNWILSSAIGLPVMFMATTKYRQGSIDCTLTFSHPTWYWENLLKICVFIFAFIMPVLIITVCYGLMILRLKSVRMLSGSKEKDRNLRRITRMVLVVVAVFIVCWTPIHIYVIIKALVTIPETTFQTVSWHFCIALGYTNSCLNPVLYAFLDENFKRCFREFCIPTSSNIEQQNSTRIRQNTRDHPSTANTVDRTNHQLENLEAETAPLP
human NOPr, sequence (P41146 whole entry): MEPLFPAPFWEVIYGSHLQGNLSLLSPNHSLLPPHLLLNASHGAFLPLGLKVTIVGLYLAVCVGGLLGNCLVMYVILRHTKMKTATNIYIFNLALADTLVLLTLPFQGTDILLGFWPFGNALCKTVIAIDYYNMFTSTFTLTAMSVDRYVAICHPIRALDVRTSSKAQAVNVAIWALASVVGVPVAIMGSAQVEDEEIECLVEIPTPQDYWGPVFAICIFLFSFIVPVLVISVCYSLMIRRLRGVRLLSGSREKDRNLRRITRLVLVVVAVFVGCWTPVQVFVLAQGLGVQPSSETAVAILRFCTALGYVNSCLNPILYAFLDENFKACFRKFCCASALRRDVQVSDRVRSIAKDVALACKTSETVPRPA
MOPr in mouse brain membranes, sequence (P42866 whole entry): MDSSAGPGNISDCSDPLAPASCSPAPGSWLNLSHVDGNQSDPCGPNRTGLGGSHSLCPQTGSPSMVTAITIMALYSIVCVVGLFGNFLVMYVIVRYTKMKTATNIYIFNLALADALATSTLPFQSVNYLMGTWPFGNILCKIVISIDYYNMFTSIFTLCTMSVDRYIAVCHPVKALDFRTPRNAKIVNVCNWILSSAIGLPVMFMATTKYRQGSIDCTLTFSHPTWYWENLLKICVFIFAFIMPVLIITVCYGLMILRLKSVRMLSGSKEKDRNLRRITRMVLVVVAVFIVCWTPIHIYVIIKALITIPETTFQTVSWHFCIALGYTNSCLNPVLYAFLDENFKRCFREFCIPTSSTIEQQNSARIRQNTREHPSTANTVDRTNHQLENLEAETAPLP
human DOPr, sequence (P41143 whole entry): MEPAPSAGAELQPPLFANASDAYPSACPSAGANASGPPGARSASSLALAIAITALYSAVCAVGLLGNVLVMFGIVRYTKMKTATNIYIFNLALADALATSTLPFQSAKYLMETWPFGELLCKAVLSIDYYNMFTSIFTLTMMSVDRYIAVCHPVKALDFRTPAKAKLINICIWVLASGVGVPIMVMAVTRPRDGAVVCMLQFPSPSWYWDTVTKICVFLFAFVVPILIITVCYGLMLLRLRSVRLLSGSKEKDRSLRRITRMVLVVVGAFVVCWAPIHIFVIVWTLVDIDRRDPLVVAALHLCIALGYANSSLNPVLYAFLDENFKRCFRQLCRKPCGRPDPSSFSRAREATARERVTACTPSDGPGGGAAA
human KOPr, sequence (P41145 whole entry): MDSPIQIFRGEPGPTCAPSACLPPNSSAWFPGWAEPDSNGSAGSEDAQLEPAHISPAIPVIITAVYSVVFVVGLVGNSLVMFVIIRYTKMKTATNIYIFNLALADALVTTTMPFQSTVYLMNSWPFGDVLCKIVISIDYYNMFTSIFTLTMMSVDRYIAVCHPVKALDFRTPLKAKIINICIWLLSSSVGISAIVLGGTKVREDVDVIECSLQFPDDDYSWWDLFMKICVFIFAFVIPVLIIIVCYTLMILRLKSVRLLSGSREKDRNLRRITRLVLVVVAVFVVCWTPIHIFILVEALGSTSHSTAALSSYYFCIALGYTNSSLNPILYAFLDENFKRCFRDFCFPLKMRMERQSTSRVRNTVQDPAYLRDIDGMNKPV

With `Oc1ccc2c3c1O[C@H]1[C@H](O)CC[C@@]4(O)[C@@H](C2)N(CC2CC2)CC[C@]314` [6β-Naltrexol, 6-β-naltrexol] the “Antagonist potency (fpKi) NOPr” value ([1]; vs nociceptin, CHO cells overexpressing NOPr, mean ± SEM of three experiments) was under 5.
With `Fc1cc(-c2cccc(-c3nc[nH]n3)c2)cc(F)c1CNC1Cc2ccccc2C1.O=P(O)(O)O` [GSK1521498, N-{[3,5-difluoro-3′-(1H-1,2,4-triazol-3-yl)-4-biphenylyl]methyl}-2,3-dihydro-1H-inden-2-amine phosphate (1:1)] the “inhibition of basal [35S]GTPγS binding” value ([2]; CHO membranes highly overexpressing MOPr (Bmax 14,500 fmol/mg protein)) was “up to 18%”, the “agonist activity when administered alone” value ([2]; at any of the opioid receptors, concentrations up to 100 μM) was “did not show agonist activity” and the “concentrations producing a significant inhibition of basal [35S]GTPγS binding” value ([2]; p < 0.001, ANOVA) was “greater than 0.4 nM”. For the same compound, the “greater reduction in cocaine seeking compared to naltrexone 3 mg/kg” value [3] was 2.5 fold, the “rate of 3H-naloxone dissociation in the presence of drug” value [4] was “unchanged” and the “greater reduction in heroin seeking compared to naltrexone 3 mg/kg” value [5] was 5.5 fold. For the same compound, the “maximum displacement of specific 3H-naloxone binding” value ([6]; HEK293 MOPr membranes) was 100%, the Ki ([6]; read-out: Affinity of binding (pKi) to MOPr (converted)) was 0.417 nM and the “selectivity for MOPr over KOPr” value [7, 13] was 14 fold. The Ki ([7]; vs dynorphin, CHO cells overexpressing KOPr, mean ± SEM of three experiments, read-out: Antagonist potency (fpKi) KOPr (converted)) was 3.31 nM, the “effect on basal [35S]GTPγS binding, naïve mice” value ([8]; brain membranes from naïve mice) was “did not reduce” and the “effect on basal [35S]GTPγS binding, severe morphine pre-treatment” value ([8]; brain membranes, 75 mg morphine pellet sc 3 days) was “very slight but statistically significant inhibition”. The “effect on basal [35S]GTPγS binding, acute morphine pre-treatment” value ([8]; brain membranes, morphine 100 mg/kg sc 4 h before sacrifice) was “did not reduce”, the “effect on basal [35S]GTPγS binding, moderate morphine pre-treatment” value ([8]; brain membranes, sc morphine at 8-h intervals for 3 days) was “did not reduce” and the “completeness of inhibition of the agonist response at MOPr” value ([9]; Met-Enk-stimulated GTPγS binding, CHO overexpressing MOPr) was “completely antagonize”. The Ki ([9]; vs Met-Enk, CHO cells overexpressing MOPr, mean ± SEM of three experiments, read-out: Antagonist potency (fpKi) MOPr (converted)) was 0.229 nM, the “effect on basal level of GTPγS binding” value [10] was “did not modify” and the “selectivity for MOPr over DOPr” value [11, 13] was 14 fold. The Ki ([11]; vs Met-Enk, CHO cells overexpressing DOPr, mean ± SEM of three experiments, read-out: Antagonist potency (fpKi) DOPr (converted)) was 3.16 nM and the Ki ([1]; vs nociceptin, CHO cells overexpressing NOPr, mean ± SEM of three experiments, read-out: Antagonist potency (fpKi) NOPr (converted)) was 257 nM.
For `CSCC[C@H](NC(=O)[C@H](Cc1ccccc1)NC(=O)CNC(=O)CNC(=O)[C@@H](N)Cc1ccc(O)cc1)C(=O)O` [Met-Enk, methionine enkephalin acetate salt hydrate], the EC50 [12] is given as 1000 nM.
For `C=C1CC[C@@]2(O)[C@H]3Cc4ccc(O)c5c4[C@@]2(CCN3CC2CC2)[C@H]1O5` [Nalmefene, nalmefene, reference compound], the “enhancement of basal [35S]GTPγS binding” value [2] was 20%, the “completeness of inhibition of the agonist response at MOPr” value [9] was “did not produce complete inhibition” and the Ki [1] was over 10000 nM.
